Test results from BindingDB's records for doi:10.7270/Q28P5XZM (Nmmlsc, 2011).

Molecular target: T1, General amino acid permease AGP1 (Saccharomyces cerevisiae (strain ATCC 204508 / S288c), UniProt P25376)
T1 sequence (P25376 whole entry): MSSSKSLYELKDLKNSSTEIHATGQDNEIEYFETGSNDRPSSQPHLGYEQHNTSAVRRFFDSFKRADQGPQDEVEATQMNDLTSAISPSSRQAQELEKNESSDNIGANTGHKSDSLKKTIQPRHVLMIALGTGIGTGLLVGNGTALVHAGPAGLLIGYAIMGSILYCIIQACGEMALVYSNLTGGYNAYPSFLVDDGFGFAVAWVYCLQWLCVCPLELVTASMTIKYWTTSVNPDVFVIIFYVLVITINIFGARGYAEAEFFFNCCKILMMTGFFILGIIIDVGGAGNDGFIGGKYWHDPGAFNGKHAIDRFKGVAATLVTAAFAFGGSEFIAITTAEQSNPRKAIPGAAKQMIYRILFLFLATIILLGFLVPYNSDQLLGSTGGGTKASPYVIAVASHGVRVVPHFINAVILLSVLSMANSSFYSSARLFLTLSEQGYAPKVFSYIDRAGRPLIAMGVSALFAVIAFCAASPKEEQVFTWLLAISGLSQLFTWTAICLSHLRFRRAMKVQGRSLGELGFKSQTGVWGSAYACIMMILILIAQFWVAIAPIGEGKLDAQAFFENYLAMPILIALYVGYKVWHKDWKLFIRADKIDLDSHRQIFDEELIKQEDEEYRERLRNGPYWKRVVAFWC
Test: AGP1-GFP level modulation, analog dose series – cell-based, flow cytometry, S. cerevisiae, cherry pick 3, SAR follow-up (AID 488790)
Conditions: inactive by the depositor's call

Row | EC50 | SMILES
1 | 775 µM | Cc1ccc(C(=O)Nc2nc(-c3ccccn3)cs2)o1 [5-methyl-N-[4-(2-pyridinyl)-2-thiazolyl]-2-furancarboxamide]
2 | 76.4 µM | Nc1ncnc(Nc2cc(Cl)cc(Cl)c2)c1[N+](=O)[O-] [MLS000581561]
